The values that follow come from US20130018033A1, “RAF INHIBITOR COMPOUNDS AND METHODS OF USE THEREOF” (ARRAY BIOPHARMA INC., priority 2009, published 2013).

Read-outs that look alike come from different tables or passages of the source.

The subject of assay [1] is basal ERK1/2 phosphorylation in Malme-3M cells. Put plainly: Cellular ERK 1/2 phosphorylation assay (Example A1). Type of assay: cell-based. The following applies: Homo sapiens, 1 hour incubation, pERK normalized to total ERK, read-out: P-ERK Malme3-M IC50. The procedure: Inhibition of basal ERK1/2 phosphorylation was determined by the following in vitro […], which comprises incubating cells with a compound of Formula I for 1 hour and quantifying the fluorescent pERK signal on fixed cells and normalizing to total ERK signal.
Malme-3M cells were obtained from ATCC and grown in RPMI-1640 supplemented with 10% fetal bovine serum. Cells were plated in 96-well plates at 24,000 cells/well and allowed to attach for 16-20 hours at 37° C., 5% CO2. The media was removed, and DMSO-diluted compounds were added in RPMI-1640 at a final concentration of 1% DMSO. The cells were incubated with the compounds for 1 hour at 37° C., 5% CO2. The cells were washed with PBS and fixed in 3.7% formaldehyde in PBS for 15 minutes. This was followed by washing in PBS/0.05% Tween20 and permeabilizing in −20° C. 100% MeOH for 15 minutes. Cells were washed in PBS/0.05% Tween20 then blocked in Odyssey blocking buffer (LI-COR Biosciences) for 1 hour. Antibodies to phosphorylated ERK (1:400, Cell Signaling #9106, monoclonal) and total ERK (1:400, Santa Cruz Biotechnology #sc-94, polyclonal) were added to the cells and incubated 16-20 hours at 4° C. After washing with PBS/0.05% Tween20, the cells were incubated with fluorescently-labeled secondary antibodies (1:1000 goat anti-rabbit IgG-IRDye800, Rockland and 1:500 goat anti-mouse IgG-Alexa Fluor 680, Molecular Probes) for an additional hour. Cells were then washed and analyzed for fluorescence at both wavelengths using the Odyssey Infrared Imaging System (LI-COR Biosciences). Phosphorylated ERK signal was normalized to total ERK signal.

The target in a further assay is T1, V600E full-length B-Raf (Homo sapiens, UniProt P15056, V600E).
T1 construct: 1 μM FSBA-MEK and 20 nM V600E full-length B-Raf; made in house; host or cells: Sf9 insect cells (baculovirus)
Put plainly: B-Raf IC50 assay (Example A). Type of assay: biochemical. From the text: Determining the activity of Raf in the sample is possible by a number of direct and indirect detection methods (US 2004/0082014). Activity of human recombinant B-Raf protein may be assessed in vitro by assay of the incorporation of radio labeled phosphate to recombinant MAP kinase (MEK), a known physiologic substrate of B-Raf, according to US 2004/0127496 and WO 03/022840. The activity/inhibition of V600E full-length B-Raf was estimated by measuring the incorporation of radio labeled phosphate from [γ-^33P]ATP into FSBA-modified wild-type MEK (see Example A).
Activity of human recombinant B-Raf protein may be assessed in vitro by assay of the incorporation of radio labeled phosphate to recombinant MAP kinase (MEK), a known physiologic substrate of B-Raf, according to US 2004/0127496 and WO 03/022840. Catalytically active human recombinant B-Raf protein is obtained by purification from sf9 insect cells infected with a human B-Raf recombinant baculovirus expression vector.
The activity/inhibition of V600E full-length B-Raf was estimated by measuring the incorporation of radio labeled phosphate from [γ-^33P]ATP into FSBA-modified wild-type MEK. The 30-μL assay mixtures contained 25 mM Na Pipes, pH 7.2, 100 mM KCl, 10 mM MgCl2, 5 mM β-glycerophosphate, […], 4 μM ATP, 500 nCi [γ-^33P]ATP, 1 μM FSBA-MEK and 20 nM V600E full-length B-Raf. Incubations were carried out at 22° C. in a Costar 3365 plate (Corning). Prior to the assay, the B-Raf and FSBA-MEK were preincubated together in assay buffer at 1.5×(20 μL of 30 nM and 1.5 μM, respectively) for 15 minutes, and the assay was initiated by the addition of 10 μL of 10 μM ATP. Following the 60-minute incubation, the assay mixtures were quenched by the addition of 100 μL of 25% TCA, the plate was mixed on a rotary shaker for 1 minute, and the product was captured on a Perkin-Elmer GF/B filter plate using a Tomtec Mach III Harvester. After sealing the bottom of the plate, 35 μL of Bio-Safe II (Research Products International) scintillation cocktail were added to each well and the plate was top-sealed and counted in a Topcount NXT (Packard).

[2] abbreviates: B-Raf V600E assay of Example A, read-out: IC50.
The mark [3] stands for this setting: [γ-33P]ATP incorporation into FSBA-MEK, 4 μM ATP, read-out: BRAF V600E IC50.
Setting [4] is: BRAF V600E IC50 (μM), [γ-33P]ATP incorporation into FSBA-MEK, 4 μM ATP.

T1 sequence (P15056 whole entry V600E): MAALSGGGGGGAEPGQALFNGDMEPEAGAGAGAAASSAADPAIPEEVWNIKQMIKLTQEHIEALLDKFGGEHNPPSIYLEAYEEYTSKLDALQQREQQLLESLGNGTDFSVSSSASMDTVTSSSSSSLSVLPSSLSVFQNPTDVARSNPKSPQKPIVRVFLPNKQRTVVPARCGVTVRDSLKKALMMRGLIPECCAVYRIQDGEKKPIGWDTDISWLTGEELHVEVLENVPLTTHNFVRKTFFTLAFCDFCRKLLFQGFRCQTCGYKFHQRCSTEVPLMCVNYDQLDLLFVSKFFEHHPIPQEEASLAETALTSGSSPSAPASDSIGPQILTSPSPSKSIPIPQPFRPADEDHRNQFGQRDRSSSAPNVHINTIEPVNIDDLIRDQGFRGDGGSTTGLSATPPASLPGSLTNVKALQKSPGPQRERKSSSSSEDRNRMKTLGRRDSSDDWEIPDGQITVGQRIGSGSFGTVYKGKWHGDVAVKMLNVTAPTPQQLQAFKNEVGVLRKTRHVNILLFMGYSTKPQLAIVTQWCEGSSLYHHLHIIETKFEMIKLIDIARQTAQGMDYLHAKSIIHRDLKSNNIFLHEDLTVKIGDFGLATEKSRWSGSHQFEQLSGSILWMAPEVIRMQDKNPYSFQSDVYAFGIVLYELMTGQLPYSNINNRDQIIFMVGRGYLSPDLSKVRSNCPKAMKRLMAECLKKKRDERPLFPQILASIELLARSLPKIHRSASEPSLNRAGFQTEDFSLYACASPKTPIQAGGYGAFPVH

A word on the IC50: it is the concentration needed to halve the response being measured. For `Cc1ncnc2c(C(=O)Nc3c(Cl)ccc(NS(=O)(=O)CCCF)c3Cl)cccc12` [Example 60, 4-Methyl-quinazoline-8-carboxylic acid [2,6-dichloro-3-(3-fluoro-propane-1-sulfonylamino)-phenyl]-amide], the IC50 is 53.4 nM in assay [1], less than 100 nM on V600E full-length B-Raf (setting [2]) and 0.82 nM at V600E full-length B-Raf (setting [3]).

On to `Nc1ncnc2c(C(=O)Nc3c(Cl)ccc(NS(=O)(=O)CCCF)c3F)ccnc12` [Example 67, 4-Amino-pyrido[3,2-d]pyrimidine-8-carboxylic acid [6-chloro-2-fluoro-3-(3-fluoro-propane-1-sulfonylamino)-phenyl]-amide], for which the figures for the IC50 (in assay [1]; at V600E full-length B-Raf (setting [2]); at V600E full-length B-Raf (setting [3])) were 2.8 nM, less than 100 nM and 0.42 nM, respectively.

Take `Nc1ncnc2c(C(=O)Nc3c(F)ccc(NS(=O)(=O)N4CCCC4)c3F)cccc12` [Example 34, 4-Amino-quinazoline-8-carboxylic acid [2,6-difluoro-3-(pyrrolidine-1-sulfonylamino)-phenyl]-amide]: the concentration for half-maximal inhibition (IC50) in assay [1] is 15.6 nM; on V600E full-length B-Raf (setting [2]), less than 100 nM; on V600E full-length B-Raf (setting [3]) it was 12.7 nM.

Consider `CCCS(=O)(=O)Nc1ccc(F)c(NC(=O)c2cccc3c(N)ncnc23)c1F` [Example 1, 4-Amino-quinazoline-8-carboxylic acid [2,6-difluoro-3-(propane-1-sulfonylamino)-phenyl]-amide], for which the IC50 was 8.67 nM in assay [1], less than 100 nM on V600E full-length B-Raf (setting [2]) and 1.77 nM at V600E full-length B-Raf (setting [4]).

As for `CCCS(=O)(=O)Nc1ccc(F)c(NC(=O)c2ccnc3c(N)ncnc23)c1Cl` [Example 63, 4-Amino-pyrido[3,2-d]pyrimidine-8-carboxylic acid [2-chloro-6-fluoro-3-(propane-1-sulfonylamino)-phenyl]-amide], the IC50 in assay [1] is 7.6 nM; on V600E full-length B-Raf (setting [2]), less than 100 nM; at V600E full-length B-Raf (setting [3]), 1.01 nM.

For the compound `CCCS(=O)(=O)Nc1cc(F)cc(NC(=O)c2cccc3c(N)ncnc23)c1F` [Example 11, 4-Amino-quinazoline-8-carboxylic acid [2,5-difluoro-3-(propane-1-sulfonylamino)-phenyl]-amide], the half-inhibitory concentration (IC50) was 45 nM in assay [1], less than 100 nM at V600E full-length B-Raf (setting [2]) and 4.13 nM at V600E full-length B-Raf (setting [3]).

For `CCCS(=O)(=O)Nc1ccc(F)c(NC(=O)c2cc(C)cc3c(N)ncnc23)c1F` [Example 70, 4-Amino-6-methyl-quinazoline-8-carboxylic acid [2,6-difluoro-3-(propane-1-sulfonylamino)-phenyl]-amide], the IC50 in assay [1] was 8.59 nM; at V600E full-length B-Raf (setting [2]) it was less than 100 nM; on V600E full-length B-Raf (setting [3]), 1.4 nM.

`CCS(=O)(=O)Nc1ccc(Cl)c(NC(=O)c2cccc3c(N)ncnc23)c1F` [Example 18, 4-Amino-quinazoline-8-carboxylic acid (6-chloro-3-ethanesulfonyl-amino-2-fluoro-phenyl)-amide]: the figures for the 50% inhibitory concentration (IC50) (in assay [1]; on V600E full-length B-Raf (setting [2]); on V600E full-length B-Raf (setting [3])) were 18.2 nM, less than 100 nM and 1.53 nM, respectively.

For the compound `CCCS(=O)(=O)Nc1ccc(Cl)c(NC(=O)c2cccc3c(N)ncnc23)c1F` [Example 17, 4-Amino-quinazoline-8-carboxylic acid [6-chloro-2-fluoro-3-(propane-1-sulfonylamino)-phenyl]-amide], the values for the IC50 (in assay [1]; on V600E full-length B-Raf (setting [2]); at V600E full-length B-Raf (setting [4])) were 8.7 nM, less than 100 nM and 0.58 nM, respectively.

In the case of `CCCS(=O)(=O)Nc1ccc(F)c(NC(=O)c2cccc3c(N)ncnc23)c1OC` [Example 4, 4-Amino-quinazoline-8-carboxylic acid [6-fluoro-2-methoxy-3-(propane-1-sulfonylamino)-phenyl]-amide], the half-maximal inhibitory concentration (IC50) is 433 nM in assay [1], less than 1000 nM at V600E full-length B-Raf (setting [2]) and 191 nM on V600E full-length B-Raf (setting [3]).

With `Nc1ncnc2c(C(=O)Nc3c(Cl)ccc(NS(=O)(=O)CCCF)c3F)cccc12` [Example 25, 4-Amino-quinazoline-8-carboxylic acid [6-chloro-2-fluoro-3-(3-fluoro-propane-1-sulfonylamino)-phenyl]-amide], the values for the concentration for half-maximal inhibition (IC50) (in assay [1]; at V600E full-length B-Raf (setting [2]); on V600E full-length B-Raf (setting [3])) were 2.21 nM, less than 100 nM and 0.09 nM, respectively.

`CCCS(=O)(=O)Nc1ccc(Cl)c(NC(=O)c2cccc3c(N)ncnc23)c1C#N` [Example 29, 4-Amino-quinazoline-8-carboxylic acid [6-chloro-2-cyano-3-(propane-1-sulfonylamino)-phenyl]-amide]: the IC50 is 25.3 nM in assay [1], less than 100 nM on V600E full-length B-Raf (setting [2]) and 0.08 nM on V600E full-length B-Raf (setting [3]).

For the compound `CCCS(=O)(=O)Nc1ccc(F)c(NC(=O)c2ccnc3c(N)ncnc23)c1F` [Example 64, 4-Amino-pyrido[3,2-d]pyrimidine-8-carboxylic acid [2,6-difluoro-3-(propane-1-sulfonylamino)-phenyl]-amide], the results for the IC50 (in assay [1]; on V600E full-length B-Raf (setting [2]); at V600E full-length B-Raf (setting [3])) were 9.7 nM, less than 100 nM and 3.11 nM, respectively.

On to `CN(C)S(=O)(=O)Nc1ccc(F)c(NC(=O)c2cccc3c(N)ncnc23)c1Cl` [Example 39, 4-Amino-N-(2-chloro-3-(N,N-dimethylsulfamoylamino)-6-fluorophenyl)quinazoline-8-carboxamide], for which the half-inhibitory concentration (IC50) in assay [1] is 32.7 nM; at V600E full-length B-Raf (setting [2]) it was less than 100 nM; at V600E full-length B-Raf (setting [3]), 7.5 nM.

Consider `CC(C)CS(=O)(=O)Nc1ccc(F)c(NC(=O)c2cccc3c(N)ncnc23)c1Cl` [Example 10, 4-Amino-quinazoline-8-carboxylic acid [2-chloro-6-fluoro-3-(2-methyl-propane-1-sulfonylamino)-phenyl]-amide], for which the 50% inhibitory concentration (IC50) was 6.73 nM in assay [1], less than 100 nM at V600E full-length B-Raf (setting [2]) and 0.55 nM on V600E full-length B-Raf (setting [3]).

In the case of `CCCS(=O)(=O)Nc1cccc(NC(=O)c2cccc3c(N)ncnc23)c1F` [Example 8, 4-Amino-quinazoline-8-carboxylic acid [2-fluoro-3-(propane-1-sulfonylamino)-phenyl]-amide], the values for the IC50 (in assay [1]; on V600E full-length B-Raf (setting [2]); at V600E full-length B-Raf (setting [3])) were 32.6 nM, less than 100 nM and 10.8 nM, respectively.

With `CCCS(=O)(=O)Nc1ccc(C#N)c(NC(=O)c2ccnc3c(N)ncnc23)c1F` [Example 69, 4-Amino-pyrido[3,2-d]pyrimidine-8-carboxylic acid [6-cyano-2-fluoro-3-(propane-1-sulfonylamino)-phenyl]-amide], the IC50 in assay [1] is 306 nM; at V600E full-length B-Raf (setting [2]), less than 100 nM; at V600E full-length B-Raf (setting [3]), 19.5 nM.

Take `CCCS(=O)(=O)Nc1ccc(F)c(NC(=O)c2cccc3cncnc23)c1F` [Example 54, Quinazoline-8-carboxylic acid [2,6-difluoro-3-(propane-1-sulfonylamino)-phenyl]amide]: the values for the half-maximal inhibitory concentration (IC50) (in assay [1]; at V600E full-length B-Raf (setting [2]); at V600E full-length B-Raf (setting [3])) were 526 nM, less than 1000 nM and 119 nM, respectively.

On to `Nc1ncnc2c(C(=O)Nc3c(F)ccc(NS(=O)(=O)CC4CC4)c3F)cccc12` [Example 13, 4-Amino-quinazoline-8-carboxylic acid (3-cyclopropyl-methane-sulfonylamino-2,6-difluoro-phenyl)-amide], for which the half-maximal inhibitory concentration (IC50) in assay [1] was 14.9 nM; at V600E full-length B-Raf (setting [2]), less than 100 nM; on V600E full-length B-Raf (setting [3]), 3.8 nM.
